# Data: patent US9302999B2, “Substituted triazoles as herbicides” (E. I. DU PONT DE NEMOURS AND COMPANY, priority 2012, dated 2016)
# Columns and labels:
# Assay type in all cases: in vivo
# [1] = tested on: barnyardgrass (Echinochloa crus-galli); experiment: Test C flooded paddy test: barnyardgrass; settings: scale 0 to 100 (0 no effect, 100 complete control)
# Outline: (§1)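 Plants were grown to the 2-leaf stage, pots flooded to 3 cm above soil, and test compounds applied directly to the paddy water, with that depth held throughout. After 13 to 15 days in a greenhouse, injury was visually rated against controls on a 0 (no effect) to 100 (complete control) scale.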
# [2] = tested on: barnyardgrass (Echinochloa crus-galli); experiment: Test A pre-/postemergence: barnyardgrass
# Outline: (§2)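 Pre: directed soil spray after planting in loam + sand. Post: same formulation (non-phytotoxic solvent + surfactant) on 1–2-leaf plants, 2–10 cm. Greenhouse ~10 d; visual injury 0–100 vs untreated.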
# [3] = tested on: wheat (Triticum aestivum); experiment: Test A pre-/postemergence: wheat
# Outline: as §2
# [4] = tested on: velvetleaf (Abutilon theophrasti); experiment: Test A pre-/postemergence: velvetleaf
# Outline: as §2
# [5] = tested on: sedge, umbrella (small-flower umbrella sedge, Cyperus difformis); experiment: Test C flooded paddy test: sedge, umbrella; settings: scale 0 to 100 (0 no effect, 100 complete control)
# Outline: as §1
# rice (Oryza sativa) = experiment: Test C flooded paddy test: rice; settings: scale 0 to 100 (0 no effect, 100 complete control)
# Outline: as §1
# [6] = tested on: ducksalad (Heteranthera limosa); experiment: Test C flooded paddy test: ducksalad; settings: scale 0 to 100 (0 no effect, 100 complete control)
# Outline: as §1
# [7] = tested on: pigweed (Amaranthus retroflexus); experiment: Test A pre-/postemergence: pigweed
# Outline: as §2
# [8] = tested on: foxtail, giant (giant foxtail, Setaria faberii); experiment: Test A pre-/postemergence: foxtail, giant
# Outline: as §2
# [9] = tested on: crabgrass, large (large crabgrass, Digitaria sanguinalis); experiment: Test A pre-/postemergence: crabgrass, large
# Outline: as §2
# [10] = tested on: morningglory (Ipomoea spp.); experiment: Test A pre-/postemergence: morningglory
# Outline: as §2
# corn (Zea mays) = experiment: Test A pre-/postemergence: corn
# Outline: as §2
# [11] = Flood (flooded paddy test), 125 g ai/ha, visual rating after 13 to 15 days
# [12] = Flood (flooded paddy test), 250 g ai/ha, visual rating after 13 to 15 days
# [13] = Postemergence, 125 g ai/ha, 0 to 100 scale, 0 is no effect, 100 is complete control
# [14] = Postemergence, 500 g ai/ha, visual rating on 0 to 100 scale (0 no effect, 100 complete control), approximately ten days
# [15] = Preemergence, 125 g ai/ha, 0 to 100 scale (0 no effect, 100 complete control)
# [16] = Preemergence, 500 g ai/ha, 0 to 100 scale, 0 is no effect, 100 is complete control
# [17] = Postemergence, 1000 g ai/ha, visual rating on 0 to 100 scale (0 no effect, 100 complete control), approximately ten days
# [18] = Preemergence, 1000 g ai/ha, 0 to 100 scale, 0 is no effect, 100 is complete control
compound,measurement,setting,value
Cc1nn(-c2ccc(C(F)(F)F)cc2)nc1Sc1cccc(C(F)(F)F)c1 [Compound 88],"Plant response rating, Barnyardgrass",[1]; [11],0
same,"Plant response rating, Barnyardgrass",[1]; [12],0
same,"Plant response rating, Barnyardgrass","[1]; Flood, 31 g ai/ha",0
same,"Plant response rating, Barnyardgrass","[1]; Flood, 62 g ai/ha",0
same,Barnyardgrass plant response rating,[2]; [13],10
same,Barnyardgrass plant response rating,[2]; [14],20
same,"Plant response rating, Barnyardgrass",[2]; [15],0
same,"Plant response rating, Barnyardgrass",[2]; [16],10
same,Wheat plant response rating,[3]; [13],0
same,Wheat plant response rating,[3]; [14],10
same,"Plant response rating, Wheat",[3]; [15],0
same,"Plant response rating, Wheat",[3]; [16],0
same,Velvetleaf plant response rating,[4]; [13],10
same,Velvetleaf plant response rating,[4]; [14],80
same,"Plant response rating, Velvetleaf",[4]; [15],0
same,"Plant response rating, Velvetleaf",[4]; [16],0
same,"Plant response rating, Sedge, Umbrella",[5]; [11],0
same,"Plant response rating, Sedge, Umbrella",[5]; [12],0
same,"Plant response rating, Sedge, Umbrella","[5]; Flood, 31 g ai/ha",0
same,"Plant response rating, Sedge, Umbrella","[5]; Flood, 62 g ai/ha",0
same,"Plant response rating, Rice",rice (Oryza sativa); [11],0
same,"Plant response rating, Rice",rice (Oryza sativa); [12],0
same,"Plant response rating, Rice","rice (Oryza sativa); Flood, 31 g ai/ha",0
same,"Plant response rating, Rice","rice (Oryza sativa); Flood, 62 g ai/ha",0
same,"Plant response rating, Ducksalad",[6]; [11],0
same,"Plant response rating, Ducksalad",[6]; [12],0
same,"Plant response rating, Ducksalad","[6]; Flood, 31 g ai/ha",0
same,"Plant response rating, Ducksalad","[6]; Flood, 62 g ai/ha",0
same,Pigweed plant response rating,[7]; [13],80
same,Pigweed plant response rating,[7]; [14],100
same,"Plant response rating, Pigweed",[7]; [15],0
same,"Plant response rating, Pigweed",[7]; [16],50
same,"Foxtail, Giant plant response rating",[8]; [13],10
same,"Foxtail, Giant plant response rating",[8]; [14],40
same,"Plant response rating, Foxtail, Giant",[8]; [15],0
same,"Plant response rating, Foxtail, Giant",[8]; [16],40
same,"Crabgrass, Large plant response rating",[9]; [13],30
same,"Crabgrass, Large plant response rating",[9]; [14],80
same,"Plant response rating, Crabgrass, Large",[9]; [15],0
same,"Plant response rating, Crabgrass, Large",[9]; [16],50
same,Morningglory plant response rating,[10]; [13],10
same,Morningglory plant response rating,[10]; [14],50
same,"Plant response rating, Morningglory",[10]; [15],0
same,"Plant response rating, Morningglory",[10]; [16],0
same,Corn plant response rating,corn (Zea mays); [13],0
same,Corn plant response rating,corn (Zea mays); [14],10
same,"Plant response rating, Corn",corn (Zea mays); [15],0
same,"Plant response rating, Corn",corn (Zea mays); [16],0
Cc1nn(-c2ccc(F)cc2)nc1Cn1cnc(C(F)(F)F)n1 [Compound 94],"Plant response rating, Barnyardgrass",[1]; [11],0
same,"Plant response rating, Barnyardgrass",[1]; [12],0
same,"Plant response rating, Barnyardgrass","[1]; Flood, 31 g ai/ha",0
same,"Plant response rating, Barnyardgrass","[1]; Flood, 62 g ai/ha",0
same,Barnyardgrass plant response rating,[2]; [17],40
same,Barnyardgrass plant response rating,[2]; [18],70
same,Wheat plant response rating,[3]; [17],30
same,Wheat plant response rating,[3]; [18],0
same,Velvetleaf plant response rating,[4]; [17],80
same,Velvetleaf plant response rating,[4]; [18],20
same,"Plant response rating, Sedge, Umbrella",[5]; [11],60
same,"Plant response rating, Sedge, Umbrella",[5]; [12],75
same,"Plant response rating, Sedge, Umbrella","[5]; Flood, 31 g ai/ha",0
same,"Plant response rating, Sedge, Umbrella","[5]; Flood, 62 g ai/ha",50
same,"Plant response rating, Rice",rice (Oryza sativa); [11],0
same,"Plant response rating, Rice",rice (Oryza sativa); [12],0
same,"Plant response rating, Rice","rice (Oryza sativa); Flood, 31 g ai/ha",0
same,"Plant response rating, Rice","rice (Oryza sativa); Flood, 62 g ai/ha",0
same,"Plant response rating, Ducksalad",[6]; [11],40
same,"Plant response rating, Ducksalad",[6]; [12],60
same,"Plant response rating, Ducksalad","[6]; Flood, 31 g ai/ha",0
same,"Plant response rating, Ducksalad","[6]; Flood, 62 g ai/ha",0
same,Pigweed plant response rating,[7]; [17],100
same,Pigweed plant response rating,[7]; [18],100
same,"Foxtail, Giant plant response rating",[8]; [17],70
same,"Foxtail, Giant plant response rating",[8]; [18],100
same,"Crabgrass, Large plant response rating",[9]; [17],80
same,"Crabgrass, Large plant response rating",[9]; [18],100
same,Morningglory plant response rating,[10]; [17],100
same,Morningglory plant response rating,[10]; [18],60
same,Corn plant response rating,corn (Zea mays); [17],40
same,Corn plant response rating,corn (Zea mays); [18],0
Cc1nn(-c2ccc(F)cc2)nc1Cn1ccc(C(F)(F)F)n1 [Compound 95],"Plant response rating, Barnyardgrass",[1]; [12],0
same,"Plant response rating, Barnyardgrass","[1]; Flood, 62 g ai/ha",0
same,Barnyardgrass plant response rating,[2]; [17],60
same,Barnyardgrass plant response rating,[2]; [18],50
same,Wheat plant response rating,[3]; [17],0
same,Wheat plant response rating,[3]; [18],0
same,Velvetleaf plant response rating,[4]; [17],70
same,Velvetleaf plant response rating,[4]; [18],40
same,"Plant response rating, Sedge, Umbrella",[5]; [12],0
same,"Plant response rating, Sedge, Umbrella","[5]; Flood, 62 g ai/ha",0
same,"Plant response rating, Rice",rice (Oryza sativa); [12],0
same,"Plant response rating, Rice","rice (Oryza sativa); Flood, 62 g ai/ha",0
same,"Plant response rating, Ducksalad",[6]; [12],0
same,"Plant response rating, Ducksalad","[6]; Flood, 62 g ai/ha",0
same,Pigweed plant response rating,[7]; [17],100
same,Pigweed plant response rating,[7]; [18],90
same,"Foxtail, Giant plant response rating",[8]; [17],60
same,"Foxtail, Giant plant response rating",[8]; [18],100
same,"Crabgrass, Large plant response rating",[9]; [17],80
same,"Crabgrass, Large plant response rating",[9]; [18],100
same,Morningglory plant response rating,[10]; [17],60
same,Morningglory plant response rating,[10]; [18],0
same,Corn plant response rating,corn (Zea mays); [17],30
same,Corn plant response rating,corn (Zea mays); [18],10
